Experimental data published in ChEMBL document CHEMBL1201862, “PubChem BioAssay data set” (2004).
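How tested: cells in 96-well plates exposed to compound for 48 hours at five concentrations. Here, GI50 denotes the concentration required for 50% inhibition of growth.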 The source made the active and inactive calls. Rule as the data show it: active = GI50 up to about 1.1 µM and inactive = higher.

What was measured:
Test in all cases: DTP human tumour cell line panel, 48 h
A549 = test system: A549
EKVX = test system: EKVX
HCC 2998 = test system: HCC 2998
HOP-62 = test system: HOP-62
HOP-92 = test system: HOP-92
IGROV-1 = test system: IGROV-1
KM12 = test system: KM12
MOLT-4 = test system: MOLT-4
NCI-H23 = test system: NCI-H23
NCI-H522 = test system: NCI-H522
OVCAR-3 = test system: OVCAR-3
OVCAR-5 = test system: OVCAR-5
RXF 393 = test system: RXF 393
SF-295 = test system: SF-295
SK-MEL-2 = test system: SK-MEL-2
SK-MEL-5 = test system: SK-MEL-5
T47D = test system: T47D
TK-10 = test system: TK-10
UACC-62 = test system: UACC-62
NCI-H226 = test system: NCI-H226

| SMILES | GI50 (A549) | GI50 (EKVX) | GI50 (HCC 2998) | GI50 (HOP-62) | GI50 (HOP-92) | GI50 (IGROV-1) | GI50 (KM12) | GI50 (MOLT-4) | GI50 (NCI-H23) | GI50 (NCI-H522) | GI50 (OVCAR-3) | GI50 (OVCAR-5) | GI50 (RXF 393) | GI50 (SF-295) | GI50 (SK-MEL-2) | GI50 (SK-MEL-5) | GI50 (T47D) | GI50 (TK-10) | GI50 (UACC-62) | GI50 (NCI-H226) |
| --- | --- | --- | --- | --- | --- | --- | --- | --- | --- | --- | --- | --- | --- | --- | --- | --- | --- | --- | --- | --- |
| Cc1cc(O)nc2c3c(ccc12)OC(C)(C)C=C3 | 7.33 µM (inactive) | 14.9 µM (inactive) | 9.55 µM (inactive) | 8.2 µM (inactive) | > 100 µM (inactive) | 6.44 µM (inactive) | 4.28 µM (inactive) | 5.16 µM (inactive) | 5.46 µM (inactive) | 6.67 µM (inactive) | 4.28 µM (inactive) | 9.62 µM (inactive) | 5.25 µM (inactive) | 10.3 µM (inactive) | 10.2 µM (inactive) | 3.82 µM (inactive) | > 23.3 µM (inactive) | > 100 µM (inactive) | 5.01 µM (inactive) |  |
| COc1nc2ncc([C@@H](O)[C@H](O)CO)nc2c(=O)[nH]1 | > 100 µM (inactive) | > 100 µM (inactive) |  | > 100 µM (inactive) | > 100 µM (inactive) | > 100 µM (inactive) | > 100 µM (inactive) | > 100 µM (inactive) |  | > 100 µM (inactive) | > 100 µM (inactive) | > 100 µM (inactive) | > 100 µM (inactive) | > 100 µM (inactive) | > 100 µM (inactive) | > 100 µM (inactive) | > 100 µM (inactive) | > 100 µM (inactive) | > 100 µM (inactive) | > 100 µM (inactive) |
| COc1ccc(NC(=O)NNS(=O)(=O)c2ccc(C)cc2)cc1 | > 100 µM (inactive) | > 100 µM (inactive) | > 100 µM (inactive) | > 100 µM (inactive) | > 100 µM (inactive) | > 100 µM (inactive) | 91.6 µM (inactive) | > 100 µM (inactive) | 52.8 µM (inactive) | 45.1 µM (inactive) |  | > 100 µM (inactive) | > 100 µM (inactive) | > 100 µM (inactive) | > 100 µM (inactive) | 74 µM (inactive) | > 100 µM (inactive) | > 100 µM (inactive) | 70 µM (inactive) | > 100 µM (inactive) |
| CCN(CCN(CC)C(=O)NC)C(=O)NC | > 100 µM (inactive) | > 100 µM (inactive) | > 100 µM (inactive) | > 100 µM (inactive) | > 100 µM (inactive) | > 100 µM (inactive) |  | > 100 µM (inactive) | > 100 µM (inactive) | > 100 µM (inactive) |  | > 100 µM (inactive) | > 100 µM (inactive) | > 100 µM (inactive) | > 100 µM (inactive) | > 100 µM (inactive) | > 100 µM (inactive) | > 100 µM (inactive) | > 100 µM (inactive) | > 100 µM (inactive) |
| CC(=O)NC1C(OCc2ccccc2)OC(CO)C(O)C1OC(C)C(=O)NC(C)C(=O)N[C@@H](CCC(=O)OCCCNC1c2ccccc2Nc2cccc([N+](=O)[O-])c21)C(N)=O (some centres undefined) | < 0.01 µM (active) | 0.0135 µM (active) | < 0.01 µM (active) | < 0.01 µM (active) | < 0.01 µM (active) | 0.0222 µM (active) | < 0.01 µM (active) | 0.0102 µM (active) | < 0.01 µM (active) | < 0.01 µM (active) | < 0.01 µM (active) | 0.0223 µM (active) | 0.0141 µM (active) | 0.0155 µM (active) | < 0.01 µM (active) | < 0.01 µM (active) | 0.174 µM (active) | < 0.01 µM (active) | < 0.01 µM (active) |  |
| COc1ccc(C2C(C#N)=C(S)N(C3OC(CO)C(O)C(O)C3O)C(C)=C2C(C)=O)cc1 (centres undefined) | > 100 µM (inactive) |  | > 100 µM (inactive) | > 100 µM (inactive) | 29 µM (inactive) | > 100 µM (inactive) | > 100 µM (inactive) | 40.8 µM (inactive) | > 100 µM (inactive) | 60.4 µM (inactive) | 47.3 µM (inactive) | > 100 µM (inactive) | 50 µM (inactive) | > 100 µM (inactive) | > 100 µM (inactive) | 42.2 µM (inactive) | 30.5 µM (inactive) | > 100 µM (inactive) | 86.1 µM (inactive) | > 100 µM (inactive) |
| O=C(Nn1c(-c2ccccc2)nc2ccccc2c1=O)c1ccccc1O | 36.8 µM (inactive) | > 100 µM (inactive) | 70.1 µM (inactive) | 76.9 µM (inactive) | 27.2 µM (inactive) | 32.2 µM (inactive) | 60.1 µM (inactive) | 24 µM (inactive) | 34.4 µM (inactive) | 32.9 µM (inactive) | 30.3 µM (inactive) | 49.4 µM (inactive) | 28.2 µM (inactive) | 63.2 µM (inactive) |  | 19.4 µM (inactive) | 42.3 µM (inactive) | 75.9 µM (inactive) | 23.4 µM (inactive) | 38.9 µM (inactive) |
| O=C(NCCCCCCCCCCCCNC(=O)Nc1cccc2ccccc12)Nc1cccc2ccccc12 | 18.2 µM (inactive) | 19.1 µM (inactive) | 14.2 µM (inactive) | 6.15 µM (inactive) | 12.1 µM (inactive) | 18.4 µM (inactive) | 18.4 µM (inactive) | 20.3 µM (inactive) | 16.8 µM (inactive) | 13.7 µM (inactive) | 16.7 µM (inactive) | 25.2 µM (inactive) | 15.2 µM (inactive) | 14.1 µM (inactive) | 15.2 µM (inactive) | 20.8 µM (inactive) | 19.1 µM (inactive) | 17.7 µM (inactive) | 12.6 µM (inactive) |  |
| C/C=C1/C[C@@H](C)[C@@](C)(O)C(=O)OCC2=CC[N+]3([O-])CC[C@@H](OC1=O)[C@@H]23 (some centres undefined) [SENECIONINE N-OXIDE] | > 100 µM (inactive) | > 100 µM (inactive) | > 100 µM (inactive) |  | > 100 µM (inactive) | > 100 µM (inactive) | > 100 µM (inactive) | > 100 µM (inactive) | > 100 µM (inactive) | > 100 µM (inactive) | > 100 µM (inactive) | > 100 µM (inactive) |  | > 100 µM (inactive) | > 100 µM (inactive) | > 100 µM (inactive) | > 100 µM (inactive) | > 100 µM (inactive) | > 100 µM (inactive) | > 100 µM (inactive) |
| O=c1c(O)c(-c2ccc(O)cc2O)oc2cc(O)cc(O)c12 [MORIN] | > 100 µM (inactive) | 30.3 µM (inactive) | > 100 µM (inactive) | > 100 µM (inactive) | > 100 µM (inactive) | > 100 µM (inactive) | > 100 µM (inactive) |  | > 100 µM (inactive) | > 10 µM (inactive) | > 100 µM (inactive) | > 100 µM (inactive) |  | > 100 µM (inactive) | > 100 µM (inactive) | > 100 µM (inactive) | > 100 µM (inactive) | 33.4 µM (inactive) |  | > 100 µM (inactive) |
| CCCCN1C(=O)C2Cc3c([nH]c4ccccc34)C(c3cccc(O)c3)N2C1=O (centres undefined) | 18.4 µM (inactive) | 17.9 µM (inactive) | 18.9 µM (inactive) | 18.5 µM (inactive) | 19.2 µM (inactive) | 17.5 µM (inactive) | 19.4 µM (inactive) | 26.7 µM (inactive) | 20.3 µM (inactive) | 20 µM (inactive) | 16.3 µM (inactive) | 18.8 µM (inactive) |  | 17.4 µM (inactive) | 18 µM (inactive) | 17 µM (inactive) | 24.4 µM (inactive) | 18.3 µM (inactive) | 17.7 µM (inactive) | 21.5 µM (inactive) |
